This note sets out measurements from US20240391871A1, “SUBSTITUTED HYDROXYMETHYL PYRROLIDINES AND MEDICAL USES THEREOF” (ATROGI AB, priority 2021, published 2024).

Where a name gives a salt, the structure may show the parent alone.

One experiment deals with L6-myotubes. In words: Glucose uptake (3H-2-deoxyglucose) in differentiated L6-myotubes. The format is cell-based. Conditions: compound 1×10^−5 M; for Emax at 10 µM: read-out: Biological example 1: glucose uptake, activity compared to that of isoproterenol. As to the method: (§1) L6-myoblasts were grown in Dulbecco's Modified Eagle's Medium (DMEM) containing 1 g/L glucose supplemented with 10% fetal bovine serum, 2 mM L-Glutamine, 50 U/mL penicillin, 50 μg/mL streptomycin and 10 mM HEPES. Cells were plated at 1×10^5 cells per mL in 24-well plates. After reaching 90% confluence the cells were grown in medium containing 2% FBS for 7 days where upon cells differentiated into myotubes.
Differentiated L6-myotubes were serum-starved overnight in medium containing 0.5% fatty-acid free BSA and stimulated with an agonist, with a final concentration of 1×10^−5 M. After 1 h 40 min the cells were washed with warm glucose free medium or PBS twice and another portion of agonist was added to the glucose free medium. After 20 min the cells were exposed to 50 nM ^3H-2-deoxyglucose for 10 min before washed with ice cold glucose free medium or PBS three times and lysed with 0.2 M NaOH, 400 μL/well, for 1 h at 60° C. The cell lysate was mixed with 4 mL scintillation buffer (Emulsifier Safe, Perkin Elmer) and the radioactivity was detected in a β-counter (Tri-Carb 4810TR, Perkin Elmer). The activity for each compound is compared to that of isoproterenol.

In experiment [1] the test system is Intracellular cAMP levels. In words: Measurement of intracellular cAMP levels in differentiated L6 cells. The experiment is classed as cell-based. The settings on record: compound 1×10^−5 M, 15 min; for Emax at 10 µM: Rattus norvegicus, L6, 0.25 h, read-out: Biological example 2: intracellular cAMP levels, activity compared to that of isoproterenol. As to the method: as §1
Differentiated cells were serum-starved overnight and stimulated with an agonist, final concentration 1×10^−5 M, for 15 min in stimulation buffer (HBSS supplemented with 1% BSA, 5 mM HEPES and 1 mM IBMX, pH 7.4). The medium was aspirated and 100 μL of 95% EtOH was added to each well of the 24-well plate and cells were kept at −20° C. overnight. The EtOH was allowed to evaporate and 500 μL of lysis buffer (1% BSA, 5 mM HEPES and 0.3% Tween-20, pH 7.4) was added to each well. The plate was kept at −80° C. for 30 min and then at −20° C. until the day of detection when the samples were thawed. Intracellular cAMP levels were detected using an alpha screen cAMP kit (6760635D from Perkin Elmer). The activity for each compound is compared to that of isoproterenol.
For orientation: cAMP levels reflect the balance of adenylyl cyclase and phosphodiesterase activity.

As for `CS(=O)(=O)N(Cc1ccccc1)[C@H]1CC[C@H](C[C@@H]2CC[C@H]([C@H](O)c3cccc(F)c3)N2)CC1` [Example 45, N-Benzyl-N-((1S,4r)-4-(((2S,5R)-5-((R)-(3-fluorophenyl)(hydroxy) -methyl)pyrrolidin-2-yl)methyl)cyclohexyl)methanesulfonamide hydrochloride], the Emax at 10 µM (in the experiment on L6-myotubes; in experiment [1]) was below 25% in each case.
Regarding `COc1ccc(C[C@H]2CC[C@H]([C@@H](O)c3cccc(F)c3)N2)cc1` [Example 16, (S)-(3-Fluorophenyl)((2R,5R)-5-(4-methoxybenzyl)pyrrolidin-2-yl)methanol], the Emax at 10 µM was 50 to 75% in the experiment with L6-myotubes and below 25% in experiment [1].
For the compound `CC(=O)N[C@H]1CC[C@H](C[C@@H]2CC[C@H]([C@H](O)c3cccc(F)c3)N2)CC1.Cl` [Example 34, N-((1S,4r)-4-(((2S,5R)-5-((R)-(3-Fluorophenyl)(hydroxy)methyl)pyrrolidin-2-yl)methyl)cyclohexyl)acetamide hydrochloride], the “Biological example 1: glucose uptake, activity compared to that of isoproterenol” value in the experiment with L6-myotubes (hydrochloride) was “+++ (more than 75% of that of isoproterenol)”. Further, the Emax at 10 µM in experiment [1] is below 25%.
Take `O[C@H](c1cncc(F)c1)[C@H]1CC[C@@H](Cc2ccc(Cl)cc2)N1` [Example 29, (R)-((2R,5S)-5-(4-Chlorobenzyl)pyrrolidin-2-yl)(5-fluoropyridin-3-yl) -methanol dihydrochloride]: the Emax at 10 µM with L6-myotubes is above 75%; in experiment [1] it was below 25%.
On the same counts, the results for `CC(=O)N(Cc1ccccc1)[C@H]1CC[C@@H](C[C@@H]2CC[C@H]([C@@H](O)c3cccc(F)c3)N2)CC1` [Example 35, N-Benzyl-N-((1R,4s)-4-(((2S,5R)-5-((S)-(3-fluorophenyl)(hydroxy) -methyl)pyrrolidin-2-yl)methyl)cyclohexyl)acetamide hydrochloride] are 25 to 50% and below 25%.
For `O[C@H](c1cccc(F)c1)[C@H]1CC[C@@H](Cc2ccc(Cl)cc2)N1` [Example 25, (R)-((2R,5S)-5-(4-Chlorobenzyl)pyrrolidin-2-yl)(3-fluorophenyl)methanol hydrochloride], the results for the Emax at 10 µM (in the experiment with L6-myotubes; in experiment [1]) were above 75% and below 25%, respectively.
Taken in the same sequence, the figures for `CS(=O)(=O)N(Cc1ccccc1)[C@H]1CC[C@@H](C[C@@H]2CC[C@H]([C@@H](O)c3cccc(F)c3)N2)CC1` [Example 39, N-Benzyl-N-((1R,4s)-4-(((2S,5R)-5-((S)-(3-fluorophenyl)(hydroxy) -methyl)pyrrolidin-2-yl)methyl)cyclohexyl)methanesulfonamide hydrochloride] were 50 to 75% and below 25%.
Consider `COc1ccc(C[C@@H]2CC[C@H]([C@H](O)c3cccc(F)c3)N2)cc1` [Example 13, (R)-(3-Fluorophenyl)((2R,5S)-5-(4-methoxybenzyl)pyrrolidin-2-yl)methanol], for which the Emax at 10 µM with L6-myotubes was above 75%; in experiment [1], below 25%.
On to `CC(=O)N[C@H]1CC[C@@H](C[C@@H]2CC[C@H]([C@@H](O)c3cccc(F)c3)N2)CC1` [Example 36, N-((1R,4s)-4-(((2S,5R)-5-((S)-(3-Fluorophenyl)(hydroxy)methyl)pyrrolidin-2-yl)methyl)cyclohexyl)acetamide], for which the results for the Emax at 10 µM (in the experiment with L6-myotubes; in experiment [1]) were 50 to 75% and below 25%, respectively.
Taken in the same sequence, the figures for `COc1ccc(C[C@H]2CC[C@H]([C@@H](O)c3cncc(F)c3)N2)cc1` [Example 24, (S)-(5-Fluoropyridin-3-yl)((2R,5R)-5-(4-methoxybenzyl)pyrrolidin-2-yl)methanol dihydrochloride] were above 75% and below 25%.
Taken in the same sequence, the figures for `COc1ccc(C[C@H]2CC[C@H]([C@H](O)c3cncc(F)c3)N2)cc1` [Example 23, (R)-(5-Fluoropyridin-3-yl)(2R,5R)-5-(4-methoxybenzyl)pyrrolidin-2-yl)methanol dihydrochloride] were above 75% and below 25%.
`COc1ccc(C[C@H]2CC[C@H]([C@H](O)c3cccc(F)c3)N2)cc1` [Example 15, (R)-(3-Fluorophenyl)((2R,5R)-5-(4-methoxybenzyl)pyrrolidin-2-yl)methanol]: the results for the Emax at 10 µM (in the experiment with L6-myotubes; in experiment [1]) were above 75% and below 25%, respectively.
Take `CC(=O)N(Cc1ccccc1)[C@H]1CC[C@H](C[C@@H]2CC[C@H]([C@H](O)c3cccc(F)c3)N2)CC1` [Example 41, N-Benzyl-N-((1S,4r)-4-(((2S,5R)-5-((R)-(3-fluorophenyl)(hydroxy) -methyl)pyrrolidin-2-yl)methyl)cyclohexyl)acetamide hydrochloride]: the Emax at 10 µM in the experiment on L6-myotubes is 25 to 50%; in experiment [1], below 25%.
As to `COc1ccc(C[C@@]2(C)CC[C@H]([C@H](O)c3cccc(F)c3)N2)cc1` [Example 19, (R)-(3-Fluorophenyl)((2R,5R)-5-(4-methoxybenzyl)-5-methylpyrrolidin-2-yl)methanol hydrochloride], the figures for the Emax at 10 µM (with L6-myotubes; in experiment [1]) were above 75% and 25 to 50%, respectively.
As for `CO[C@H]1CC[C@H](C[C@@H]2CC[C@H]([C@H](O)c3ccccc3F)N2)CC1.Cl` [Example 5, (R)-(2-Fluorophenyl)((2R,5S)-5-(((1r,4S)-4-methoxycyclohexyl)methyl-(pyrrolidin-2-yl)methanol hydrochloride], the Emax at 10 µM with L6-myotubes was above 75%; in experiment [1], below 25%.
For `CS(=O)(=O)N[C@H]1CC[C@@H](C[C@@H]2CC[C@H]([C@@H](O)c3cccc(F)c3)N2)CC1` [Example 40, N-((1R,4s)-4-(((2S,5R)-5-((S)-(3-fluorophenyl)(hydroxy)methyl)pyrrolidin-2-yl)methyl)cyclohexyl)methanesulfonamide hydrochloride], the Emax at 10 µM was 50 to 75% in the experiment with L6-myotubes and below 25% in experiment [1].
Taken in the same sequence, the figures for `O[C@@H](c1cncc(F)c1)[C@H]1CC[C@H](Cc2ccc(Cl)cc2)N1` [Example 32, (S)-(2R,5R)-5-(4-Chlorobenzyl)pyrrolidin-2-yl)(5-fluoropyridin-3-yl) -methanol dihydrochloride] were above 75% and below 25%.
Taken in the same sequence, the figures for `CO[C@H]1CC[C@H](C[C@@H]2CC[C@H]([C@H](O)c3cncc(F)c3)N2)CC1` [Example 9, (R)-(5-Fluoropyridin-3-yl)(2R,5S)-5-(((1r,4S)-4-methoxycyclohexyl)methyl) -pyrrolidin-2-yl)methanol dihydrochloride] were 25 to 50% and below 25%.
For `CO[C@H]1CC[C@H](C[C@H]2CC[C@H]([C@@H](O)c3cccc(F)c3)N2)CC1.Cl` [Example 4, (S)-(3-Fluorophenyl)((2R,5R)-5-(((1r,4R)-4-methoxycyclohexyl)-methyl) -pyrrolidin-2-yl)methanol hydrochloride], the “Biological example 1: glucose uptake, activity compared to that of isoproterenol” value in the experiment with L6-myotubes is “+ (between 50 and 25%)”. Moreover, the “Biological example 2: intracellular cAMP levels, activity compared to that of isoproterenol” value in experiment [1] is recorded as “− (less than 25%)”.
In the case of `O[C@@H](c1cncc(F)c1)[C@H]1CC[C@@H](Cc2ccc(Cl)cc2)N1` [Example 30, (S)-(2R,5S)-5-(4-Chlorobenzyl)pyrrolidin-2-yl)(5-fluoropyridin-3-yl) -methanol dihydrochloride], the Emax at 10 µM was 50 to 75% in the experiment with L6-myotubes and below 25% in experiment [1].
In the case of `CC(=O)N[C@H]1CC[C@H](C[C@@H]2CC[C@H]([C@H](O)c3cccc(F)c3)N2)CC1.Cl` [Example 42, N-((1S,4r)-4-(((2S,5R)-5-((R)-(3-Fluorophenyl)(hydroxy)methyl)pyrrolidin-2-yl)methyl)cyclohexyl)acetamide hydrochloride], the “Biological example 1: glucose uptake, activity compared to that of isoproterenol” value with L6-myotubes (hydrochloride) was “++ (between 75 and 50%)”. Also, the “Biological example 2: intracellular cAMP levels, activity compared to that of isoproterenol” value in experiment [1] is reported as “− (less than 25%)”.
As to `CS(=O)(=O)N[C@H]1CC[C@H](C[C@@H]2CC[C@H]([C@@H](O)c3cccc(F)c3)N2)CC1` [Example 48, N-((1S,4r)-4-(((2S,5R)-5-((S)-(3-Fluorophenyl)(hydroxy)methyl)pyrrolidin-2-yl)methyl)cyclohexyl)methanesulfonamide hydrochloride], the Emax at 10 µM was 50 to 75% in the experiment with L6-myotubes and below 25% in experiment [1].
Turning to `CO[C@H]1CC[C@H](C[C@@H]2CC[C@H]([C@@H](O)c3ccccc3F)N2)CC1` [Example 6, (S)-(2-Fluorophenyl)((2R,5S)-5-(((1r,4S)-4-methoxycyclohexyl)methyl) -pyrrolidin-2-yl)methanol hydrochloride], the Emax at 10 µM with L6-myotubes is 25 to 50%; in experiment [1], below 25%.
